{
  "source": "patent US11274332B2",
  "about": "“Methods of administering 3,4-diaminopyridine” (SERB SA, priority 2011, dated 2022)",
  "biological_target": "T1, cloned human Kv1.3 potassium channel (Homo sapiens, UniProt P22001)",
  "T1 construct": "expressed in transfected cells",
  "T1 sequence (P22001 whole entry)": "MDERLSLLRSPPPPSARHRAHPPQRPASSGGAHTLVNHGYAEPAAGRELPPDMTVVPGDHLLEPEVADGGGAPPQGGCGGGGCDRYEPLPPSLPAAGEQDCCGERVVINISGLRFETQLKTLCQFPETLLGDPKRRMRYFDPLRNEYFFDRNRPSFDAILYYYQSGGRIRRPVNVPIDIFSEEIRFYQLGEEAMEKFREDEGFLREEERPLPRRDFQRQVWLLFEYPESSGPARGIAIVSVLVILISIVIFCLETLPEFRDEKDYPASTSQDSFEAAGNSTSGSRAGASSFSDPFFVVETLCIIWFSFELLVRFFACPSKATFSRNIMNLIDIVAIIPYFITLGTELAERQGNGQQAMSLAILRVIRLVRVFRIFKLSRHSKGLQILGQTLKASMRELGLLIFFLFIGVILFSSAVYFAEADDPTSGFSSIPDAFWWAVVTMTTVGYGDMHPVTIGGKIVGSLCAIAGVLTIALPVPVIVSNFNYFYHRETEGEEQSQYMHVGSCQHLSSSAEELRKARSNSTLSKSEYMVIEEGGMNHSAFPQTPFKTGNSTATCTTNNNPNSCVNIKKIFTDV",
  "assay": "PatchXpress inhibition of cloned human Kv1.3 in CHO cells (Example 6)",
  "format": "cell-based",
  "details": "hKv1.3, up to 3000 μM",
  "from_the_text": "The objective of this study was to examine the in vitro effects and determine the […] of 3,4-DAP phosphate and the metabolite N-(4-aminopyridin-3-yl) acetamide HCl on the following ion channels: cloned human Kv1.1 potassium channel (encoded by the human KCNA1 gene, expressed in HEK293 cells), cloned human Kv1.2 potassium channel (encoded by the human KCNA2 gene, expressed in HEK293 cells), cloned human Kv1.3 potassium channel (encoded by the human KCNA3 gene, expressed in CHO cells), cloned human Kv1.4 potassium channel (encoded by the human KCNA4 gene, expressed in HEK293 cells), cloned human Kv1.5 potassium channel (encoded by the human KCNA5 gene and expressed in CHO cells), responsible for IKur, ultra-rapid delayed rectifier potassium current.\nChemicals used in solution preparation were purchased from Sigma-Aldrich (St. Louis, Mo.), unless otherwise noted, and were of ACS reagent grade purity or higher. Stock solutions of each test article (100 mM, 30 mM and 1.00 mM 3,4-DAP phosphate and 100 mM N-(4-aminopyridin-3-yl)acetamide) were prepared in sterile water and stored refrigerated. […]\nIn preparation for a recording session, intracellular solution was loaded into the intracellular compartments of the Sealchip16. […] After establishment of a whole-cell configuration, membrane currents were recorded using dual-channel patch clamp amplifiers in the PatchXpress®. […]",
  "data": [
    {"smiles": "CC(=O)Nc1cnccc1N", "note": "[3-N-acetyl amifampridine, N-(4-aminopyridin-3-yl)acetamide]", "values": [
      {"measurement": "activity on K+ channel", "result": "inactive"},
      {"measurement": "activity on K+ channel", "setting": "listed as N-acetyl metabolite", "result": "not active"}
    ]}
  ]
}
